The subject of data set [1] is methylphenidate. The data set is described as follows: Methylphenidate antagonism in mice. Particulars: Mus musculus, ip, 2 h, read-out: MePh antag. ED50 2 hr i.p., mice, test substance i.p., 2 hr before methylphenidate 60 mg/kg s.c. The class given is in vivo. The procedure, abridged:
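Test substance given i.p. 2 or 24 h before methylphenidate 60 mg/kg s.c.; mice observed in pairs for 1 h on corrugated paper for biting. Three pairs per dose, scored as fraction of pairs not biting; ED50 in mg/kg.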

In data set [2] the test system is amphetamine. As to the kind of experiment: Amphetamine antagonism in rats. Particulars: Rattus norvegicus, po, rats, p.o., amphetamine 10 mg/kg base i.v.; read-out: Amphetamine antag. ED50 p.o. The class given is in vivo. In short, it runs like this:
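Rats dosed p.o. with test substance, then 2 or 24 h later given amphetamine sulphate 13.6 mg/kg (10 mg/kg base) i.v.; five rats per dose. Stereotypy (head movements, compulsive gnawing) scored for 1 min at 55 and 65 min; fraction of rats without stereotypy used to derive ED50 in mg/kg.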

Data set [3] is described as follows: in vivo. Further details: species or system rats. Particulars: for Ratio catalep./Amphet.: catalepsy ED50 / amphetamine antagonism ED50; for ED50: rat, in vivo, po, rats, p.o., strongest effect within first 6 hours, read-out: Catalep. (catalepsy wire mesh, rat, max, ED50). The procedure, abridged:
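Oral dosing at 4 fixed-scale levels, five animals per group. Rats were placed on a vertical 1 cm-mesh wire netting at 60, 120, 180, 240, 300 and 360 min post-dose. Immobility for 15 s scored cataleptic; sliding passively or climbing scored non-cataleptic.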

The nature of data set [4]: Mouse grid shock (analgesia). Particulars: mice, minimal effective dose, in mg/kg. The class given is in vivo. The procedure, abridged:
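Mice (five per dose) on an electrified grid received 20 cycles/s, 5 msec square-wave pulses of rising current until they squeaked, giving the pain threshold in mA. Results are % increase over the pre-dose value, or an MED by van der Waerden X-test.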

Data set [5] is described as follows: Pharmacological animal tests, general statements on activity. Particulars: in vivo. On the procedure:
After recrystallisation from 500 milliliters of methanol 18.5 grams of the (-)-isomer of Lu 13-092, D-(-)-tartrate were obtained, melting at 207°-209° C. […] The novel indanes of Formula I were tested pharmacologically in standard and reliable animal tests.

A short description of data set [6]: in vivo. Particulars: iv.
For data set [7], the system named is 3H-DA uptake in striatal synaptosomes. As to the kind of experiment: 3H-DA uptake in striatal synaptosomes in vitro. The class given is biochemical, rats. As to conditions: rat striatal synaptosomes, 12.5 nM 3H-DA, 37° C., pH 7.4. On the procedure: ^3 H-DA uptake in striatal synaptosomes in vitro
0.32 M sucrose containing 1 mM Nialamide
Millipore filters (HAWPO 2500, 0.45μ)
3,4-dihydroxyphenylethylamine[ethyl-1-^3 H(N)]=^3 H-DA spc. act. app. 15 Ci/mmol, New England Nuclear Thomas Tissue Grinder, clearance 0.004-0.006 inch.
Rats are killed by a blow to their head, exsanguinated and their brains removed. The brain is placed on a precooled glassplate, and the two corpura striata are dissected out and gently homogenized in 40 volumes of ice cold 0.32 M sucrose containing 1 mM of nialamide using a hand homogenizer with teflon pestle. The P2 -fraction (synaptosomal fraction) is obtained by centrifugation (600 g, 10 min., 25000 g, 55 min. 4° C.) and suspended in 40 volumes of a modified Krebs-Ringer-phosphate buffer, pH 7.4. To 200 μl of the synaptosomal fraction on ice are added 3700 μl modified Krebs-Ringer-phosphate buffer--containing test compounds. After a preincubation at 37° C. for 5 min. […] The incubation is terminated by filtering the samples under vacuum through Millipore filters with a wash of 5 ml buffer containing 10 μM of unlabelled DA. After solubilizing the filters in 1 ml of cellosolve the radioactivity is determined by liquid scintillation counting after the addition of 10 ml of Insta-Gel. The unspecific binding of ^3 H-DA is determined by incubating control samples on ice instead of at 37° C.
All experiments are performed in triplicate.
The mean of all control samples and ice samples are calculated. […] The IC50-values are determined as the concentrations, at which the uptake are 50 percent of the uptake in control samples-uptake in ice samples.

Structures are written as SMILES. A value given as a limit tells only on which side of the number the result lay.

Turning to `CN1CCN([C@@H]2C[C@@H](c3ccc(F)cc3)c3ccc(F)cc32)CC1` (relative stereo) [Lu 13-092, trans-1-methyl-4-(3-(4'-fluorophenyl)-6-fluoro-1-indanyl)piperazine], the values for the ED50 in data set [1], in data set [2] and in data set [3] were 4.2 mg/kg, 14.8 mg/kg and 81 mg/kg, respectively. Moreover, in data set [3], the “Ratio catalep./Amphet.” value amounted to 5.5. Besides, the “MED Grid Shock” value in data set [4] was found to be 1.3. Further, the “neuroleptic activity” value in data set [5] is given as “the neuroleptic active isomer is the trans-isomer”. Also, in data set [6], the LD50 was 80 mg/kg.
For the compound `OCC(O)CN1CCN(C2CC(c3ccc(F)cc3)c3ccc(F)cc32)CC1` (single isomer, unassigned) [Lu 17-066], the ED50 was 1.6 mg/kg in data set [1], 18 mg/kg in data set [2] and greater than 160 mg/kg in data set [3]. For the same compound, the “Ratio catalep./Amphet.” value in data set [3] came to 8.9. The “MED Grid Shock” value in data set [4] came to 2.5. For the same compound, half-maximal inhibition in data set [7] (IC50) was put at 27 nM. The compound also yielded an LD50 in data set [6] greater than 160 mg/kg.
With `CC(C)N1CCN(C2CC(c3ccc(F)cc3)c3ccc(F)cc32)CC1` (stereo not drawn) [Lu 17-062, 1-Isopropyl-4-(3-(4'-fluorophenyl)-6-fluoro-1-indanyl)piperazine], the results for the ED50 in data set [1], in data set [2] and in data set [3] were 1.3 mg/kg, 10 mg/kg and 14 mg/kg, respectively. In addition, the “Ratio catalep./Amphet.” value in data set [3] came out at 1.4. In addition, in data set [4], the “MED Grid Shock” value stood at 5. The “neuroleptic activity” value in data set [5] is reported as “neuroleptical active isomer”. The compound also had an LD50 in data set [6] of 113 mg/kg.

What is called LD50 is the dose at which mortality reaches 50%. Usually IC50 stands for the point on the concentration scale where inhibition reaches its midpoint.

Source of the values: US4443448A, “Indane derivatives, pharmaceutical compositions thereof and method of preparation” (priority 1980, dated 1984).
